Test results: patent US20060165603A1, “Solubilisation of drugs in hfa propellant by means of emulsions” (Chiesi Farmaceutici S.p.A., priority 2002, published 2006)
Structures can show the parent of a compound that is named as a salt.

Experiments:
[1] = Emulsion formation of pMDI formulations in HFA propellant (visual); type: physicochemical; settings: 5% w/w water, 25 μg/50 μl drug; for Comment (emulsion formation): HFA227
Experimental: (§1) Samples were prepared in clear glass formulation vials. The surfactants were added first followed by water then the other components of the formulation were added and the weight of bottle recorded after each addition. Final compositions were calculated as percentage w/w. Valves were crimped onto plastic-coated bottles or anodized aluminium cans before being placed in a sonicator for 5 minutes to allow as much dissolution of surfactants in the water as possible. The propellant was filled through the valve and the final weight of the packaged formulation recorded. In the case of the emulsions the packaged formulations were either shaken vigorously by hand or gently warmed in the hand (sonication where necessary) to induce an emulsion.
The surfactants used for these formulations are a Span85/AOT blend and the Synperonics L64.

[2] = Microemulsion formation / appearance of formulations in HFA227; type: physicochemical; settings: 10% surfactant, 20% EtOH, HFA 227, 5% w/w water
Experimental: as §1, with “emulsion. For the microemulsion formulations the same method was used except the ethanol was added just before crimping and no sonication was required after HFA addition as a clear formulation was obtained immediately.” for “emulsion.”
The following table 3 lists the various microemulsion formulations prepared with Synperonic L64, AOT, and the fluorinated surfactant Zonyl FSN. L64 and Zonyl FSN produced clear systems.

Comment (emulsion formation) ([1]; 0.1% Span85, 0.05% AOT) | Emulsion formation, HFA 134a ([1]; 0.1% Synperonic L64) | Emulsion formation, HFA 227 ([1]; 0.1% Synperonic L64) | Comment (emulsion formation) ([1]; 0.4% Span85, 0.05% AOT) | Emulsion formation, HFA 134a ([1]; 0.5% Synperonic L64) | Emulsion formation, HFA 227 ([1]; 0.5% Synperonic L64) | Emulsion formation, HFA 134a ([1]; 1% Synperonic L64) | Emulsion formation, HFA 227 ([1]; 1% Synperonic L64) | Comment (emulsion formation) ([1]; 0.1% Span85, 0.01% AOT) | Compound | Comment (microemulsion formulation appearance) [2]
Emulsion | Emulsion | Emulsion | Emulsion | Emulsion | Emulsion | Emulsion | Emulsion |  | CN1CCc2cccc3c2[C@H]1Cc1ccc(O)c(O)c1-3 [Apomorphine Hydrochloride, apomorphine hydrochloride] | 
Emulsion | Emulsion |  |  | Emulsion | Immediate emulsion | Emulsion | Immediate emulsion | Emulsion | CCC(=O)Oc1ccc2c(c1)CC[C@@H]1[C@@H]2CC[C@]2(C)[C@@H](OC(=O)CC)CC[C@@H]12 [Oestradiol Dipropionate, oestradiol dipropionate] | 
 |  |  |  |  |  |  |  |  | sodium dioctylsulpho-succinate [AOT] | Slight cloud, one apparent phase
